The values below come from patent publication US20050020544A1, “Bicyclic CB2 cannabinoid receptor ligands” (priority 2002, published 2005).

Experiment [1] deals with T1, human CB1 receptor (Homo sapiens, UniProt P21554).
T1 construct: purchased Perkin Elmer/NEN; host or cells: HEK-293 cells, stably transfected (membranes)
The experiment is described as follows: biochemical. The format is binding. The conditions noted are these: CB1 IC50. The gist of the method: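 Displacement of [3H]CP55940 from membranes of HEK-293 cells stably expressing human CB1, in 50 mM Tris-HCl, 2.5 mM EDTA, 5 mM MgCl2, 1 mg/ml BSA, pH 7.4, 0.1% DMSO; 1.5 h at 30° C, then filtration.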

For the next experiment, the target named is human CB2 receptor (Homo sapiens, UniProt P34972). The experiment is described as follows: Adenylylcyclase assay: forskolin-activated cAMP in CB2 transfected HEK-293 cells. The format is cell-based. To be noted: HEK293, read-out: % inhibition at 1 μM; CB2 receptor transfected HEK-293, 1 μM forskolin. As for the experimental part:
(§1) Cannabinoids and derivatives bind to G-protein-coupled CB1 and CB2 receptors and exert their activity via the inhibition of adenylylcyclase activity. An adenylylcyclase assay forms a basis for the functional analysis of the compounds by determining their capacity to inhibit or promote forskolin-activated cAMP production. The assay is carried out according to Chin et al. (Chin, C. N. et al., J. Neurochem. 70: 366-73, 1998). Briefly, HEK-293 human kidney cells (ATCC#CRL-1573) stably transfected with either the human CB1 or CB2 receptor (cDNA) were grown in DMEM supplemented with 10% fetal calf serum, 1% Penicillin-Streptomycin and 2 mM L-glutamine. Cells were seeded in 24 wells plate at 5×10^4 cells/well and incubated for 48 hours. Medium was then removed and the adherent cells were washed with PBS. Two hundred μl of serum free medium supplemented with 0.2 mM Ro 20-1724, 0.25% BSA, and 20 mM HEPES was then added to each well. The cells were then activated with 1 μM forskolin in presence of the bicyclic test compounds in concentrations ranging from 10 pM up to 1 μM. The activated cells were then incubated at 37° C. for 20 minutes and the reaction terminated with 1.2 M HCl to a final concentration of 0.1 M. Cells were lyzed by freeze and thaw and the lysate was neutralized with 2 M HEPES, pH 7.5. cAMP was measured in 50 μl aliquots using the [^3H]-cAMP assay system (Amersham).
(§2) This experiment was first performed on CB2 receptor transfected cells.

The target in experiment [2] is T1, human CB1 receptor. Kind of experiment: Adenylylcyclase assay: forskolin-activated cAMP in CB1 transfected HEK-293 cells. The format is cell-based. As for the experimental part: as §1, §2
Another experiment has as its system male Sprague-Dawley rats. Kind of experiment: Chronic constriction nerve injury, neuropathic pain (Von Frey filaments). The format is in vivo, rat. The conditions noted are these: 4 mg/kg i.p., 15 minutes. The source says:
The aim of this study was to assess the potential analgesic effects of the novel bicyclic CB2 binding compounds in an animal model of neuropathic pain. A peripheral monopathy was induced in the right hind limb of rats following a chronic constriction of the sciatic nerve (Bennet, G. J. & Xie, Y-K., Pain 33: 87-107, 1988). The development of mechanical allodyna was monitored using an established behavioral test (Von Frey filaments).
Pre-surgery baseline values were ascertained as the mean of 2 pre-surgery values. Once the baseline values had been established, the animals were surgically prepared by constricting the right sciatic nerve with 4 chromic cat gut loose ligatures.
The design was randomized, performed in a masked fashion as to whether drug or vehicle is being given. The animals, male Sprague-Dawley rats (average body weight 240-290 g), were allowed to acclimatize to the behavioral testing equipment prior to testing. On the testing day, the animals, at least six per treatment group, were given i.p. a single dose of one of the test compounds in a volume of 2.5 ml/kg. Fifteen minutes later, a series of Von Frey filaments (pre-calibrated prior to testing) were applied to the plantar surface of the hind paw, from below. The filaments were applied in ascending order starting with the weakest force and the withdrawal threshold for both the ipsilateral and contralateral hind paws was evaluated. Each filament was indented on the mid-plantar surface of the foot to the point where it just starts to bend; this is repeated approximately 8-10 times per filament at a frequency of approximately 1 Hz. The withdrawal threshold is defined as being the lowest force of two or more consecutive Von Frey's filaments to elicit a reflex withdrawal response (i.e. a brief paw flick) and is measured in grams.
The results are expressed as % increase in the threshold of response to Von Frey's filaments in the test compound treated group versus the vehicle treated animals and per definition the vehicle treated group yields a null baseline value. The black column represents the morphine treated animals (4 mg/kg), the gray and the dotted column bars represent two doses of compound A (0.5 and 1 mg/kg respectively).

Experiment [3] relates to ICR male mice. The experiment is described as follows: Tail flick model for acute peripheral pain, i.p. The format is in vivo, mouse. The conditions noted are these: 5 mg/kg i.p. As for the experimental part: (§3) ICR male mice (20-30 g average body weight, Harlan, Israel) were injected i.p. at the volume dose of 5 ml/kg. Each treatment group contained at least 6 animals. Morphine HCl was used as positive control at the final dose of 5 mg/kg. Its vehicle, saline, was also included as control. The test compounds were dissolved in CREMOPHOR EL®:ethanol and diluted 1:20 in saline prior to injection, this second type of vehicle was also included as negative control. The final dose injected varied from 0.1 to 10 mg/kg. At predetermined time points after treatment injection, the animals were placed in the tail flick system (Socrel, model DS 20). Animals were gently held while their tails were located above the photoelectric cell. The tails were then illuminated (21V) at 2 cm from the distal tip and the latency time, measured in seconds, was recorded in duplicates. At the end of the study, the animals were euthanized by i.p. injection of 100 mg/kg sodium pentobarbitone.
Two parameters were used to analyze the results, the latency time and the % of animals showing analgesia. […] The results in both cases are expressed as mean±SE. The differences between the latency times or the % of animals showing analgesia among various treatment groups was analyzed by analysis of variance (ANOVA) followed by post-hoc Tukey's test (for latency) or Fisher's exact test (for % animals). A value of p<0.05 is considered to be statistically significant.

Another experiment has as its system Male Sprague Dawley rats. The experiment is described as follows: Inflammatory pain: carrageenan paw edema in rats, thermal and mechanical stimuli. The format is in vivo, rat. To be noted: 5 mg/kg, three hours. How it is done:
Male Sprague Dawley rats (200 g average body weight, Harlan, Israel) are transiently sedated by placement on dry ice for the duration of the injections. […] Before induction of inflammatory pain and three hours after injection, the animals reactions to pain stimuli were tested in two systems. The first stimulus was thermal and assessed by the Plantar Test according to Hargreaves, using Ugo Basile Model 7370. The scale was set to an intensity of 50 arbitrary units. The latency time till the animal lift a paw as a reaction to the thermal stimulus was recorded for both the inflamed and non-inflamed hind paws. The second stimulus was mechanical (tactile) and assessed using a Dynamic Plantar Sesthesiomether (Ugo Basile Model 73400-002).
The results are measured as the differences between the two hind paws at time 0 and 3 hours both as ALT, for the latency time in the thermal part of the study, and as ΔForce, for the mechanical part of the study.
(In general: In the carrageenan paw model, swelling and tenderness develop within hours.)

For experiment [4], the system named is ICR male mice. The experiment is described as follows: Development of tolerance on repeated administration, tail flick model. The conditions noted are these: 5 mg/kg twice daily i.p. How it is done:
as §3
Tolerance was assessed in the tail flick model above described. Briefly, the test compounds were administered twice daily i.p. for up to 10 days to groups of 10 animals each. The noxious pain threshold was measured as previously described in example 13 thirty minutes after the first drug administration on days 1, 4, 8 and 10. Results are expressed as mean latency time till the animal flicked its tail±SE. The differences between the latency times or the % of animals showing analgesia among various treatment groups was analyzed by analysis of variance (ANOVA) followed by post-hoc Tukey's test (for latency) or Fisher's exact test (for % animals). A value of p<0.05 is considered to be statistically significant.

T1 sequence (P21554 whole entry): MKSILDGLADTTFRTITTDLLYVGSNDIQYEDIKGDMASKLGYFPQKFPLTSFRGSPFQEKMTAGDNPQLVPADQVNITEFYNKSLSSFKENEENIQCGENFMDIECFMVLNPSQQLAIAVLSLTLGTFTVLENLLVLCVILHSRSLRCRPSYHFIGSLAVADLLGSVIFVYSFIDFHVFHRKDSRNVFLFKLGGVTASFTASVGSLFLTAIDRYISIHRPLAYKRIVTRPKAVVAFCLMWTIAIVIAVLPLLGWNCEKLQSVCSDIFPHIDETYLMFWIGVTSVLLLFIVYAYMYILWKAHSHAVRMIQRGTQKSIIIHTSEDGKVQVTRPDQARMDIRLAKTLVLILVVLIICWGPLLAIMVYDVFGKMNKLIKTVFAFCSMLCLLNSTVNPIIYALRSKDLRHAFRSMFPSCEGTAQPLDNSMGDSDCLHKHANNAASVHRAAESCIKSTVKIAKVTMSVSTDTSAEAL
Chain of human CB2 receptor (P34972 whole entry): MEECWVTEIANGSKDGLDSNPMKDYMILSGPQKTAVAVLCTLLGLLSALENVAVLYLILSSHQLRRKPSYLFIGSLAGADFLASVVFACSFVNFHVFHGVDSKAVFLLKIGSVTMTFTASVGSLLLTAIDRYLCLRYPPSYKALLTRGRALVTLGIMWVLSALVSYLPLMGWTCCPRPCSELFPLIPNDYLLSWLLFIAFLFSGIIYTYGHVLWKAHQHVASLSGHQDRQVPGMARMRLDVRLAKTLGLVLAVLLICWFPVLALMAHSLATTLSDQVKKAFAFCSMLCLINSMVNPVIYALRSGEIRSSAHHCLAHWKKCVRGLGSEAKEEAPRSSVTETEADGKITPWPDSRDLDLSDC

What is called IC50 is the concentration that gives 50% inhibition. A word on the inhibition: it is how much of the control response was suppressed. Turning to `CCCCCCC(C)(C)c1cc(O)c2c(c1)OC(C)(C)[C@@H]1CC=C(CO)C[C@@H]21` [HU-210, 7-hydroxy-Δ^6-tetrahydrocannabinol-1,1-dimethyl-heptyl, reference compound], the figures for the IC50 against human CB1 receptor [1] and on human CB1 receptor [2] were 0.39 nM and 0.35 nM, respectively. Besides, the inhibition at 1 µM at human CB2 receptor was 50%; on human CB1 receptor [2] (HEK293, CB1 transfected HEK-293, 1 μM forskolin, read-out: maximal inhibition at 1 μM), 73%.
For `CN1CC[C@]23c4c5ccc(O)c4O[C@H]2[C@@H](O)C=C[C@H]3[C@H]1C5` [Morphine, reference compound], the “increase in pain threshold (Von Frey) versus vehicle, ipsilateral hind paw” value in the experiment on male Sprague-Dawley rats is given as 91%. The latency time was determined as 7.5 s in the experiment with ICR male mice [3] (30 minutes); 3.9 s in the experiment on ICR male mice [3] (90 minutes); 3.6 s with ICR male mice [3] (five and a half hour); 3.1 s in the experiment on ICR male mice [3] (two and a half hour); 5.8 s with ICR male mice [4] (day 10); 7.5 s in the experiment on ICR male mice [4] (day one). For the same compound, the “% animals showing analgesia” value with ICR male mice [3] (90 minutes) is recorded as “about 40%”. In addition, the “% animals showing increased analgesia” value with ICR male mice [3] (five and an half hours) was found to be 17%; with ICR male mice [3] (half-an hour), 88%. For the same compound, the “ΔForce (tactile stimulus)” value in the experiment with Male Sprague Dawley rats was determined as 2.7 grams. In addition, the “ΔLT (thermal stimulus)” value in the experiment on Male Sprague Dawley rats is 0 s. The “% of animals showing increased analgesia” value in the experiment with ICR male mice [4] (day 10) stood at 30%; in the experiment on ICR male mice [4] (day one), 80%.
